# Assay results taken from publication PMC10433430, “The transport of mannitol in Sinorhizobium meliloti is carried out by a broad-substrate polyol transporter SmoEFGK and is affected by the ability to transport and metabolize fructose” (Microbiology, 2023).
# What was measured:
# SmoEFGK [1] = target: T1, SmoEFGK (Sinorhizobium meliloti, UniProt Q92N02); experiment: […]-mannitol uptake competition, intact cells; assay type: cell-based; details: 2 µM 14C-mannitol as tracer, mannitol-grown wild-type Rm1021
# T1 construct: gene smoE; native ABC transporter in intact S. meliloti Rm1021 cells grown on mannitol; smoK::Tn5-B20 mutant as control; with ABC transporter, sorbitol/mannitol permease SmoF; ABC transporter, sorbitol/mannitol permease SmoG
# T1 sequence (Q92N03 entry or part of it): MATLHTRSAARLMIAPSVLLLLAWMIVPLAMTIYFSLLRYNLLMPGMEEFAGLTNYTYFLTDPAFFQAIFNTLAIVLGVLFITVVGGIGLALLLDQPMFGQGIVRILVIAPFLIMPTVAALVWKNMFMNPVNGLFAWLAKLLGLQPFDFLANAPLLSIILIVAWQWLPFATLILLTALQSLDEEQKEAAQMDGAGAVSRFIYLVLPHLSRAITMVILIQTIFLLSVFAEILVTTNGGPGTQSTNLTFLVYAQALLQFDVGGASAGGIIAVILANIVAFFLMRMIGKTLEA
# T1 sequence (Q92N04 entry or part of it, further chain): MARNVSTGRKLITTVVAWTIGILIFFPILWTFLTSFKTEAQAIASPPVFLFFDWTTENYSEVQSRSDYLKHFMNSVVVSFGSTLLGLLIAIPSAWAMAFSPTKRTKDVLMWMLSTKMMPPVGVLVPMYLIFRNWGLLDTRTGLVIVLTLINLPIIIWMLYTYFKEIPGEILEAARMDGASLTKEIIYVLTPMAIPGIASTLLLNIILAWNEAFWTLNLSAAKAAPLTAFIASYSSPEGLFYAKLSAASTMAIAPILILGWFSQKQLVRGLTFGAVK
# T1 sequence (Q92N02 entry or part of it): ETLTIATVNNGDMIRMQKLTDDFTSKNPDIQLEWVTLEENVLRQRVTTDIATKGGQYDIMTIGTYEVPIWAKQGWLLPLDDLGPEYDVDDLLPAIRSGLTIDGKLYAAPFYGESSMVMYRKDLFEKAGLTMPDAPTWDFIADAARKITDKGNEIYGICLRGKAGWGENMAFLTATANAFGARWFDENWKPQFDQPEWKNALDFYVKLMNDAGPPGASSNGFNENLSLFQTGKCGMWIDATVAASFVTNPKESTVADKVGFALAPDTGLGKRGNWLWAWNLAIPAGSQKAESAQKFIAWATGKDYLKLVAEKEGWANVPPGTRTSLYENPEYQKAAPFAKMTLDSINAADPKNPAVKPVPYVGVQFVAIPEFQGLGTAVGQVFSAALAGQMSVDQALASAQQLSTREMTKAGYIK
# T1 sequence (Q92N05 entry or part of it, further chain): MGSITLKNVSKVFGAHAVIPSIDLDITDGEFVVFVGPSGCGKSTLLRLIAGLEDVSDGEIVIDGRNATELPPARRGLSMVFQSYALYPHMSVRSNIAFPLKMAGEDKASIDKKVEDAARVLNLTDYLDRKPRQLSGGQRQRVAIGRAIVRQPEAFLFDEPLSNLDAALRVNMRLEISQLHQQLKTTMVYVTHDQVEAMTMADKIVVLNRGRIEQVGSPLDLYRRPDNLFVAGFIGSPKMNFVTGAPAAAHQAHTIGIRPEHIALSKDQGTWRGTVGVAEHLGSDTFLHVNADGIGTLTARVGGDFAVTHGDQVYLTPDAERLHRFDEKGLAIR
# MtlK = target: T2, MtlK (Sinorhizobium meliloti, UniProt Q92N07); experiment: in-gel dehydrogenase activity stain, native PAGE; assay type: biochemical; details: NAD+, phenazine methosulfate, nitro blue tetrazolium; cell extract
# T2 construct: full length from plasmid pJD02 (mtlK/pCO37) in S. meliloti smoS mutant; cell extract, native gel
# T2 sequence (Q92N07 entry or part of it): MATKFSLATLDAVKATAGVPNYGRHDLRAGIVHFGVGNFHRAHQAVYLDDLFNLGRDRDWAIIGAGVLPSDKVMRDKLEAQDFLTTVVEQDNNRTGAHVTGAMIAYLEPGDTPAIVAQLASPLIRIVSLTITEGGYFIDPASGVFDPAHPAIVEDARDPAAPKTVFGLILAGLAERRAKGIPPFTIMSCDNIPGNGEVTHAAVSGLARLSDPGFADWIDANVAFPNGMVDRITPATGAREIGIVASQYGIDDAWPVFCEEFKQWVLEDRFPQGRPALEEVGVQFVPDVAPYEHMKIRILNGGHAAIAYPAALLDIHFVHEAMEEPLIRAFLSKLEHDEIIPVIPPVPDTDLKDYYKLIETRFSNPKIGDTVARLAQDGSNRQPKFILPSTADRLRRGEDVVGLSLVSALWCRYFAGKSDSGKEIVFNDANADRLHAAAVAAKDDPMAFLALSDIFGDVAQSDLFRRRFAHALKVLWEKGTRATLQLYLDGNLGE
# SmoS = target: T3, SmoS (Sinorhizobium meliloti, UniProt Q92N06); experiment: in-gel dehydrogenase activity stain, native PAGE; assay type: biochemical; details: sorbitol as substrate, phenazine methosulfate, nitro blue tetrazolium; cell extract
# T3 construct: full length from plasmid pSMc01500 (smoS/pCO37) in S. meliloti smoS mutant; cell extract, native gel
# T3 sequence (Q92N06 entry or part of it): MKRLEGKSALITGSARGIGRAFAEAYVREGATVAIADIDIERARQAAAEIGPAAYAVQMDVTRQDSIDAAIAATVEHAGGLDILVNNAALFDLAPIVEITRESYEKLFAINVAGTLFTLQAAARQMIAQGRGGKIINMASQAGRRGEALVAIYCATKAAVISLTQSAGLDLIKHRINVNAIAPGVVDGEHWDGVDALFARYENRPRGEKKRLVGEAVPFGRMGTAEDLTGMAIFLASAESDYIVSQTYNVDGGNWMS
# Frk = target: T4, Frk (Sinorhizobium meliloti, UniProt Q92SC5); experiment: PK/LDH-coupled kinase assay, […] nm; assay type: biochemical; details: 6 mM fructose, 3 mM ATP, 6 mM MgCl2, HEPES pH 7.5; partially purified
# T4 construct: N-terminal 6xHis tag, expressed from pMK48 (pRK7813) in S. meliloti Rm1021, partially purified on Ni-NTA
# T4 sequence (Q92SC5 1-308): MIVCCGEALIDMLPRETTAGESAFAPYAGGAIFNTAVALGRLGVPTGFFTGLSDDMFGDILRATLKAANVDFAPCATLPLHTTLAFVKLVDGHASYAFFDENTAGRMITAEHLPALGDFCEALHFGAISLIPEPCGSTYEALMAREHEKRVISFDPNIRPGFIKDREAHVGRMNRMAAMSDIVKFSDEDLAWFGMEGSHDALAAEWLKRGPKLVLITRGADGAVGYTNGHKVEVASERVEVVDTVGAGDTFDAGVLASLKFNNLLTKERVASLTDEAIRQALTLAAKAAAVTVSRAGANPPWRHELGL
# SmoEFGK [2] = target: T1, SmoEFGK; experiment: […]-mannitol uptake competition, intact cells; assay type: cell-based; details: 2 µM 14C-mannitol as tracer, 10 µM unlabelled maltitol; mannitol-grown wild-type Rm1021
# SmoEFGK [3] = target: T1, SmoEFGK; experiment: […]-mannitol uptake, wild type against smoK mutant; assay type: cell-based; details: labelled compound, 2 µM; cells grown in mannitol and glucose
compound,measurement,setting,value
OC[C@@H](O)C(O)[C@H](O)CO [D-arabitol],% reduction of uptake at 2 μM,SmoEFGK [1]; 2 µM unlabelled D-arabitol,~ 50%
same,"in-gel dehydrogenase activity stain, native PAGE",MtlK,"if D-arabitol was used as a substrate, bands that are coincident with what mannitol result"
NC(=O)c1ccc[n+]([C@@H]2O[C@H](COP(=O)(O)OP(=O)(O)OC[C@H]3O[C@@H](n4cnc5c(N)ncnc54)[C@H](O)[C@@H]3O)[C@@H](O)[C@H]2O)c1 [NAD^+],"in-gel dehydrogenase activity stain, native PAGE",SmoS,smoS encodes an NAD^+-dependent sorbitol and galactitol dehydrogenase
OCC1(O)OC[C@@H](O)[C@@H](O)[C@@H]1O (stereo partly shown) [fructose],"PK/LDH-coupled kinase assay, 340 nm",Frk,partially purified Frk was assayed for kinase activity using fructose as a substrate
OC[C@@H](O)[C@@H](O[C@H]1O[C@H](CO)[C@@H](O)[C@H](O)[C@H]1O)[C@H](O)[C@@H](O)CO [maltitol],% reduction of uptake at 10 μM,SmoEFGK [2],> 50%
OC[C@@H](O)[C@@H](O)[C@H](O)[C@H](O)CO [mannitol],"14C-mannitol uptake, wild type against smoK mutant",SmoEFGK [3],SRmD495 cells were severely compromised in their ability to transport mannitol
OC[C@@H](O)[C@@H](O)[C@H](O)[C@@H](O)CO [sorbitol],% reduction of uptake at 2 μM,SmoEFGK [1]; 2 µM unlabelled sorbitol,~ 50%
